Values joined by “and” are separate entries in the source; they are usually repeats but may differ in a detail not shown here. Identical values can stand only once. Toxic doses and inconclusive results are not listed.

The test system of this experiment is P388 leukemia ip, CD2F1 mice, survival T/C. Briefly: NCI In Vivo Anticancer Drug Screen. Data for tumor model P388 Leukemia (intraperitoneal) in CD2F1 (CDF1) mice. The conditions noted are these: endpoint: median survival time, higher = longer survival. In a few lines: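 Mice carrying the transplanted tumor received test compound or vehicle. Survival was recorded in each group, and the value is the treated-group measurement divided by that of the vehicle-treated control group.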

The mark [1] stands for this setting: dose: 50.0 mg/kg/injection, schedule: Q04DX003 (ip), vehicle: saline with Tween-80.
Where [2] appears, read: dose: 100.0 mg/kg/injection, schedule: Q04DX003 (ip), vehicle: saline with Tween-80.
[3] abbreviates: dose: 200.0 mg/kg/injection, schedule: Q04DX003 (ip), vehicle: saline with Tween-80.
Where [4] appears, read: dose: 12.5 mg/kg/injection, schedule: Q01DX009 (ip), vehicle: saline.
Setting [5] is: dose: 25.0 mg/kg/injection, schedule: Q01DX009 (ip), vehicle: saline.
[6] abbreviates: dose: 50.0 mg/kg/injection, schedule: Q01DX009 (ip), vehicle: saline.
The mark [7] stands for this setting: dose: 100.0 mg/kg/injection, schedule: Q01DX009 (ip), vehicle: saline.
[8] abbreviates: dose: 200.0 mg/kg/injection, schedule: Q01DX009 (ip), vehicle: saline.
[9] abbreviates: dose: 100.0 mg/kg/injection, schedule: Q01DX009 (ip), vehicle: saline with Tween-80.
Where [10] appears, read: dose: 200.0 mg/kg/injection, schedule: Q01DX009 (ip), vehicle: saline with Tween-80.
Setting [11] is: dose: 12.5 mg/kg/injection, schedule: Q01DX009 (ip), vehicle: saline with Tween-80.
[12] abbreviates: dose: 60.0 mg/kg/injection, schedule: Q01DX005 (ip), vehicle: saline with Tween-80.
Setting [13] is: dose: 120.0 mg/kg/injection, schedule: Q01DX005 (ip), vehicle: saline with Tween-80.
The mark [14] stands for this setting: dose: 240.0 mg/kg/injection, schedule: Q01DX005 (ip), vehicle: saline with Tween-80.

Take `CN(C)C(=S)/N=C1/SCS(=O)(=O)N1c1ccccc1`: the T/C is, setting by setting: under setting [1], 98 % of control; under setting [2], 104 % of control; under setting [3], 95 % of control.

Consider `CC[N+](CC)(CC)CC(=O)c1ccc(Br)cc1`, for which the T/C is, setting by setting: under setting [4], 100 % of control; under setting [5], 104 % of control; under setting [6], 95 % of control.

For `CCN(CC)CCCC(C)Nc1cc(OC)c2nc(C)ccc2c1OC` (stereo unspecified), the T/C is 97 % of control (dose: 0.78 mg/kg/injection, schedule: Q01DX009 (ip), vehicle: saline); 100 % of control (dose: 1.56 mg/kg/injection, schedule: Q01DX009 (ip), vehicle: saline); 99 % of control and 97 % of control (dose: 3.12 mg/kg/injection, schedule: Q01DX009 (ip), vehicle: saline).

For the compound `CC(=O)OCC1OC(n2cnc3c(Cl)nc(N)nc32)C(OC(C)=O)C1OC(C)=O` (stereo unspecified), the T/C is 101 % of control (dose: 25.0 mg/kg/injection, schedule: Q01DX005 (ip), vehicle: Klucel (hydroxypropylcellulose) (HPC)); 101 % of control (dose: 50.0 mg/kg/injection, schedule: Q01DX005 (ip), vehicle: Klucel (hydroxypropylcellulose) (HPC)); 108 % of control (dose: 100.0 mg/kg/injection, schedule: Q01DX005 (ip), vehicle: Klucel (hydroxypropylcellulose) (HPC)); 105 % of control (dose: 200.0 mg/kg/injection, schedule: Q01DX005 (ip), vehicle: Klucel (hydroxypropylcellulose) (HPC)).

For `COc1cc(OC)c2c(c1)OC(=O)C(C(C)=O)C2` (stereo unspecified), the T/C is, setting by setting: (dose: 50.0 mg/kg/injection, schedule: Q01DX005 (ip), vehicle: saline with Tween-80) 96 % of control; (dose: 100.0 mg/kg/injection, schedule: Q01DX005 (ip), vehicle: saline with Tween-80) 112 % of control.

As for `N#CC1=C(C#N)SCCCS1`, the T/C under setting [6] is 100 % of control, the T/C under setting [7] was 100 % of control and the T/C under setting [8] is 99 % of control.

On to `C=CCOC(N)=O`, for which the T/C by setting is: under setting [9], 100 % of control; under setting [10], 101 % of control; (dose: 400.0 mg/kg/injection, schedule: Q01DX009 (ip), vehicle: saline with Tween-80) 101 % of control.

For `Cc1cc(/C=C\c2ccc3ccccc3[n+]2C)c(O)c2ncccc12`, the T/C under setting [11] is 114 % of control and the T/C (dose: 25.0 mg/kg/injection, schedule: Q01DX009 (ip), vehicle: saline with Tween-80) is 106 % of control.

In the case of `CCOC(=O)c1ccc(N(C)Cc2cnc(N)c(C#N)n2)cc1`, the T/C is 114 % of control (dose: 15.0 mg/kg/injection, schedule: Q01DX009 (ip), vehicle: saline with Tween-80); 115 % of control (dose: 30.0 mg/kg/injection, schedule: Q01DX009 (ip), vehicle: saline with Tween-80); 89 % of control (dose: 60.0 mg/kg/injection, schedule: Q01DX009 (ip), vehicle: saline with Tween-80).

As to `CN1NC(c2ccccc2)=C(C#N)C(=O)CC1c1cccs1` (stereo unspecified), the T/C under setting [12] was 95 % of control, the T/C under setting [13] was 88 % of control and the T/C under setting [14] was 96 % of control.

`O=c1[nH]cnc2c1nnn2C1OC(CO)C(O)C1O` (stereo unspecified): the T/C is 102 % of control and 105 % of control (dose: 25.0 mg/kg/injection, schedule: Q01DX005 (ip), vehicle: saline); 107 % of control and 111 % of control (dose: 50.0 mg/kg/injection, schedule: Q01DX005 (ip), vehicle: saline); 114 % of control and 118 % of control (dose: 100.0 mg/kg/injection, schedule: Q01DX005 (ip), vehicle: saline); 111 % of control and 116 % of control (dose: 200.0 mg/kg/injection, schedule: Q01DX005 (ip), vehicle: saline); 100 % of control (dose: 400.0 mg/kg/injection, schedule: Q01DX005 (ip), vehicle: saline).

As to `O=[N+]([O-])c1cnc(Sc2ccncn2)c([N+](=O)[O-])c1`, the T/C by setting is: (dose: 3.12 mg/kg/injection, schedule: Q01DX009 (ip), vehicle: saline with Tween-80) 105 % of control; (dose: 6.25 mg/kg/injection, schedule: Q01DX009 (ip), vehicle: saline with Tween-80) 98 % of control; under setting [11], 102 % of control; under setting [4], 100 % of control; under setting [5], 89 % of control; under setting [6], 99 % of control.

Turning to `O=C(O)C1C(C(=O)O)C1c1ncnc2nc[nH]c12` (stereo unspecified), the T/C was 99 % of control and 100 % of control (dose: 25.0 mg/kg/injection, schedule: Q04DX003 (ip), vehicle: saline); 100 % of control and 101 % of control (dose: 50.0 mg/kg/injection, schedule: Q04DX003 (ip), vehicle: saline); 98 % of control and 103 % of control and 100 % of control (dose: 100.0 mg/kg/injection, schedule: Q04DX003 (ip), vehicle: saline); 103 % of control and 104 % of control (dose: 200.0 mg/kg/injection, schedule: Q04DX003 (ip), vehicle: saline); 100 % of control and 99 % of control (dose: 400.0 mg/kg/injection, schedule: Q04DX003 (ip), vehicle: saline).

With `COc1cc2c(c(OC)c1OC)-c1ccc(OC)c(=O)cc1[C@@H](NC(=O)CF)CC2`, the T/C by setting is: (dose: 23.4 micrograms/kg/injection, schedule: Q01DX009 (ip), vehicle: saline) 121 % of control; (dose: 93.7 micrograms/kg/injection, schedule: Q01DX009 (ip), vehicle: saline) 152 % of control; (dose: 187.5 micrograms/kg/injection, schedule: Q01DX009 (ip), vehicle: saline) 152 % of control; (dose: 250.0 micrograms/kg/injection, schedule: Q04DX003 (ip), vehicle: saline) 163 % of control; (dose: 375.0 micrograms/kg/injection, schedule: Q01DX009 (ip), vehicle: saline) 161 % of control; (dose: 500.0 micrograms/kg/injection, schedule: Q04DX003 (ip), vehicle: saline) 204 % of control. Also, where the note is “dose: 2000.0 micrograms/kg/injection, schedule: Q04DX003 (ip), vehicle: saline”, the T/C was 122 % of control.

Take `Cc1ccc(C(=Nc2ccccc2)N=S(c2ccccc2)c2ccccc2)cc1`: the T/C under setting [1] was 97 % of control, the T/C under setting [2] was 92 % of control and the T/C under setting [3] is 97 % of control.

Turning to `COC(=O)C12CN(C)CC(C(=O)OC)(C1=O)C(c1ccccn1)N(C)C2c1ccccn1` (stereo unspecified), the T/C is, setting by setting: under setting [12], 100 % of control; under setting [13], 98 % of control; under setting [14], 98 % of control.

With `Cc1ccc(NC2OC(CO)C(O)C(O)C2O)cc1` (stereo unspecified), the T/C by setting is: under setting [6], 104 % of control; under setting [7], 111 % of control; under setting [8], 98 % of control.

`c1cc[c]([Sn][c]2ccccc2)cc1`: the T/C (dose: 2.5 mg/kg/injection, schedule: Q01DX009 (ip), vehicle: saline) is 151 % of control.

Consider `O=C(/C=C/C(=O)Oc1cc(Cl)c(Cl)cc1Cl)Oc1cc(Cl)c(Cl)cc1Cl`, for which the T/C is 96 % of control under setting [2]; 88 % of control under setting [3]; 97 % of control (dose: 400.0 mg/kg/injection, schedule: Q04DX003 (ip), vehicle: saline with Tween-80).

Regarding `O=C(NCCS(=O)(=O)O)C1CCCN1` (stereo unspecified), the T/C runs as follows: (dose: 60.0 mg/kg/injection, schedule: Q01DX005 (ip), vehicle: saline) 100 % of control; (dose: 120.0 mg/kg/injection, schedule: Q01DX005 (ip), vehicle: saline) 100 % of control; (dose: 240.0 mg/kg/injection, schedule: Q01DX005 (ip), vehicle: saline) 99 % of control.

In the case of `CCOC(=O)c1c(C)c(C(=O)OCC)n(CC)c1C=O`, the T/C (dose: 50.0 mg/kg/injection, schedule: Q01DX009 (ip), vehicle: saline with Tween-80) is 96 % of control; the T/C under setting [9] was 98 % of control; the T/C under setting [10] is 98 % of control.

These data come from PubChem BioAssay AID330 (DTP/NCI, 2004).
